In brackets after ≈: the same amount, converted by molar mass. Where two headings read alike, the source gives them in different places.
Key:
Mtb [1] = assay: microbe, parasite or virus in culture; type: cell-based, Mycobacterium tuberculosis
Mtb [2] = assay: microbe, parasite or virus in culture; type: cell-based, Mycobacterium tuberculosis; details: for MIC: Mycobacterium tuberculosis, read-out: MIC (I)
Mtb [3] = assay: microbe, parasite or virus in culture; type: cell-based, Mycobacterium tuberculosis; details: Mycobacterium tuberculosis, read-out: MIC (II)
in vitro [4] = details: human
in vitro [5] = details: African green monkey

Compound | LC50 (IV) (Vero cells) | MIC (III) (Mtb [1]) | MIC (I) (Mtb [2]) | MIC (Mtb [3]) | CC50 (in vitro [4]) | CC50 (in vitro [5]) | MIC (Mtb [2])
CCOC(=O)NC(=O)c1ccsc1NC(=O)c1ccc2[nH]ncc2c1 [Compound 350] | B (key: A: >50 μg/mL; B: 50-25 μg/mL; C: <25 μg/mL) | C (key: A: <5 μg/mL; B: 5-25 μg/mL; C: >25 μg/mL) | C (key: A: <1 μg/mL; B: 1-3 μg/mL; C: >3 μg/mL) |  |  |  | 
CCOC(=O)NC(=O)c1ccsc1NC(=O)c1ccc2sc(C)nc2c1 [Compound 10] |  |  |  | < 1 µg/mL | > 50 µg/mL | 25 to 50 µg/mL (≈ 64.2 to 128 µM) | < 1 µg/mL
CCOC(=O)NC(=O)c1ccsc1NC(=O)c1nc2cc(F)ccc2s1 [Compound 53] |  |  |  | < 1 µg/mL | 25 to 50 µg/mL (≈ 63.5 to 127 µM) | < 25 µg/mL | < 1 µg/mL
CCOC(=O)NC(=O)c1ccsc1NC(=O)c1ccnc(NC(C)=O)c1 [Compound 13] |  |  |  | < 1 µg/mL | > 50 µg/mL |  | 
CCOC(=O)NC(=O)c1ccsc1NC(=O)c1nc(=O)[nH]c2ccccc12 [Compound 141] | A (key: A: >50 μg/mL; B: 50-25 μg/mL; C: <25 μg/mL) | C (key: A: <5 μg/mL; B: 5-25 μg/mL; C: >25 μg/mL) | C (key: A: <1 μg/mL; B: 1-3 μg/mL; C: >3 μg/mL) |  |  |  | 
CCOC(=O)NC(=O)c1ccsc1NC(=O)c1ccnc(NC(=O)OC(C)C)c1 [Compound 4] |  |  |  | 1 to 3 µg/mL (≈ 2.38 to 7.14 µM) | > 50 µg/mL |  | 
CCOC(=O)NC(=O)c1ccsc1NC(=O)c1cc2ccccn2n1 [Compound 11] |  |  |  | 1 to 3 µg/mL (≈ 2.79 to 8.37 µM) | > 50 µg/mL |  | 
O=C(Nc1sccc1C(=O)N1CCSCC1)c1nc2ccccc2s1 [Compound 261] | A (key: A: >50 μg/mL; B: 50-25 μg/mL; C: <25 μg/mL) | C (key: A: <5 μg/mL; B: 5-25 μg/mL; C: >25 μg/mL) | C (key: A: <1 μg/mL; B: 1-3 μg/mL; C: >3 μg/mL) |  |  |  | 
O=C(Nc1sccc1C(=O)N1CCN(C2CC2)CC1)c1nc2ccccc2s1 [Compound 256] | C (key: A: >50 μg/mL; B: 50-25 μg/mL; C: <25 μg/mL) | B (key: A: <5 μg/mL; B: 5-25 μg/mL; C: >25 μg/mL) | C (key: A: <1 μg/mL; B: 1-3 μg/mL; C: >3 μg/mL) |  |  |  | 
CCOc1n[nH]c(-c2ccsc2NC(=O)c2nc3ccccc3s2)n1 [Compound 211] | A (key: A: >50 μg/mL; B: 50-25 μg/mL; C: <25 μg/mL) |  |  |  |  |  | 
O=C(NC(=O)c1ccsc1NC(=O)c1cn2ccccc2n1)OC1CCCC1 [Compound 348] | B (key: A: >50 μg/mL; B: 50-25 μg/mL; C: <25 μg/mL) | C (key: A: <5 μg/mL; B: 5-25 μg/mL; C: >25 μg/mL) | C (key: A: <1 μg/mL; B: 1-3 μg/mL; C: >3 μg/mL) |  |  |  | 
CC(C)OC(=O)NC(=O)c1ccsc1NC(=O)c1ccc2[nH]nnc2c1 [Compound 364] | B (key: A: >50 μg/mL; B: 50-25 μg/mL; C: <25 μg/mL) | C (key: A: <5 μg/mL; B: 5-25 μg/mL; C: >25 μg/mL) | B (key: A: <1 μg/mL; B: 1-3 μg/mL; C: >3 μg/mL) |  |  |  | 
CCOC(=O)NC(=O)c1ccsc1NC(=O)c1ccnc(-n2cnnn2)c1 [Compound 12] |  |  |  | 1 to 3 µg/mL (≈ 2.58 to 7.74 µM) | > 50 µg/mL |  | 
COC(=O)CCCNC(=O)c1ccsc1NC(=O)c1nc2ccccc2s1 [Compound 237] | B (key: A: >50 μg/mL; B: 50-25 μg/mL; C: <25 μg/mL) |  |  |  |  |  | 
CS(=O)(=O)N1CCN(C(=O)c2ccsc2NC(=O)c2nc3ccccc3s2)CC1 [Compound 229] | A (key: A: >50 μg/mL; B: 50-25 μg/mL; C: <25 μg/mL) |  |  |  |  |  | 
CCOC(=O)NC(=O)c1ccsc1NC(=O)c1nc2cc(Cl)ccc2s1 [Compound 52] |  |  |  | < 1 µg/mL | > 50 µg/mL |  | 

Compound | LC50 (IV) (Vero cells) | MIC (III) (Mtb [1]) | MIC (I) (Mtb [2]) | MIC (Mtb [3]) | CC50 (in vitro [4]) | CC50 (in vitro [5]) | MIC (Mtb [2])
CCOC(=O)NC(=O)c1ccsc1NC(=O)c1ccc2[nH]nnc2c1 [Compound 363] | B (key: A: >50 μg/mL; B: 50-25 μg/mL; C: <25 μg/mL) | C (key: A: <5 μg/mL; B: 5-25 μg/mL; C: >25 μg/mL) | C (key: A: <1 μg/mL; B: 1-3 μg/mL; C: >3 μg/mL) |  |  |  | 
CCOC(=O)NC(=O)c1ccsc1NC(=O)c1cccc(NC(C)=O)c1 [Compound 3] |  |  |  | 1 to 3 µg/mL (≈ 2.66 to 7.99 µM) | > 50 µg/mL |  | 
CCOC(=O)NC(=O)c1ccsc1NC(=O)c1n[nH]c2cc(C)ccc12 [Compound 120] | A (key: A: >50 μg/mL; B: 50-25 μg/mL; C: <25 μg/mL) | C (key: A: <5 μg/mL; B: 5-25 μg/mL; C: >25 μg/mL) | C (key: A: <1 μg/mL; B: 1-3 μg/mL; C: >3 μg/mL) |  |  |  | 
CCOC(=O)NC(=O)c1ccsc1NC(=O)c1n[nH]c2cc(Cl)ccc12 [Compound 134] | A (key: A: >50 μg/mL; B: 50-25 μg/mL; C: <25 μg/mL) | C (key: A: <5 μg/mL; B: 5-25 μg/mL; C: >25 μg/mL) | C (key: A: <1 μg/mL; B: 1-3 μg/mL; C: >3 μg/mL) |  |  |  | 
CCOC(=O)NC(=O)c1ccsc1NC(=O)c1nc2ccc(NC(=O)CNC(=O)OC(C)(C)C)cc2s1 [Compound 392] | B (key: A: >50 μg/mL; B: 50-25 μg/mL; C: <25 μg/mL) | C (key: A: <5 μg/mL; B: 5-25 μg/mL; C: >25 μg/mL) | B (key: A: <1 μg/mL; B: 1-3 μg/mL; C: >3 μg/mL) |  |  |  | 
O=C(NC(=O)c1ccsc1NC(=O)c1nc2ccccc2s1)OCCF [Compound 20] | C (key: A: >50 μg/mL; B: 50-25 μg/mL; C: <25 μg/mL) |  | A (key: A: <1 μg/mL; B: 1-3 μg/mL; C: >3 μg/mL) |  |  |  | 
CCOC(=O)NC(=O)c1ccsc1NC(=O)c1n[nH]c2cc(C#N)ccc12 [Compound 128] | A (key: A: >50 μg/mL; B: 50-25 μg/mL; C: <25 μg/mL) | C (key: A: <5 μg/mL; B: 5-25 μg/mL; C: >25 μg/mL) | C (key: A: <1 μg/mL; B: 1-3 μg/mL; C: >3 μg/mL) |  |  |  | 
N#Cc1ccccc1NC(=O)c1nc2ccccc2s1 [Compound 215] | A (key: A: >50 μg/mL; B: 50-25 μg/mL; C: <25 μg/mL) |  |  |  |  |  | 
CCOC(=O)NC(=O)c1ccsc1NC(=O)c1cnc2cc[nH]c2c1 [Compound 355] | B (key: A: >50 μg/mL; B: 50-25 μg/mL; C: <25 μg/mL) | C (key: A: <5 μg/mL; B: 5-25 μg/mL; C: >25 μg/mL) | C (key: A: <1 μg/mL; B: 1-3 μg/mL; C: >3 μg/mL) |  |  |  | 
O=C(Nc1sccc1C(=O)NC(=O)N1CCOCC1)c1nc2ccccc2s1 [Compound 385] | C (key: A: >50 μg/mL; B: 50-25 μg/mL; C: <25 μg/mL) | C (key: A: <5 μg/mL; B: 5-25 μg/mL; C: >25 μg/mL) | C (key: A: <1 μg/mL; B: 1-3 μg/mL; C: >3 μg/mL) |  |  |  | 
CC(C)OC(=O)NC(=O)c1ccsc1NC(=O)c1n[nH]c2ncccc12 [Compound 359] | B (key: A: >50 μg/mL; B: 50-25 μg/mL; C: <25 μg/mL) | C (key: A: <5 μg/mL; B: 5-25 μg/mL; C: >25 μg/mL) | C (key: A: <1 μg/mL; B: 1-3 μg/mL; C: >3 μg/mL) |  |  |  | 
O=C(NC(=O)c1ccsc1NC(=O)c1nc2cnccc2s1)OC(c1ccccc1)C(F)(F)F (centres unmarked) [Compound 304] | B (key: A: >50 μg/mL; B: 50-25 μg/mL; C: <25 μg/mL) | C (key: A: <5 μg/mL; B: 5-25 μg/mL; C: >25 μg/mL) | B (key: A: <1 μg/mL; B: 1-3 μg/mL; C: >3 μg/mL) |  |  |  | 
CC(C)OC(=O)NC(=O)c1ccsc1NC(=O)c1ccc2[nH]ncc2c1 [Compound 351] | B (key: A: >50 μg/mL; B: 50-25 μg/mL; C: <25 μg/mL) | C (key: A: <5 μg/mL; B: 5-25 μg/mL; C: >25 μg/mL) | C (key: A: <1 μg/mL; B: 1-3 μg/mL; C: >3 μg/mL) |  |  |  | 
CCOC(=O)NC(=O)c1ccsc1NC(=O)c1n[nH]c2ncccc12 [Compound 358] | B (key: A: >50 μg/mL; B: 50-25 μg/mL; C: <25 μg/mL) | C (key: A: <5 μg/mL; B: 5-25 μg/mL; C: >25 μg/mL) | C (key: A: <1 μg/mL; B: 1-3 μg/mL; C: >3 μg/mL) |  |  |  | 
CN1CCC(NC(=O)c2ccsc2NC(=O)c2nc3ccccc3s2)CC1 [Compound 255] | A (key: A: >50 μg/mL; B: 50-25 μg/mL; C: <25 μg/mL) | C (key: A: <5 μg/mL; B: 5-25 μg/mL; C: >25 μg/mL) | C (key: A: <1 μg/mL; B: 1-3 μg/mL; C: >3 μg/mL) |  |  |  | 

— US20160194299A1 (priority 2013, published 2016)
